What was measured:
Test in all cases: KINOMEscan competition binding
Conditions in all cases: compound 10.0 µM
[1] = system: ABL1 (human), P00519 [E255K]
CDK2 (human) = CDK2 (human) (UniProt P24941)
EGFR (human) = EGFR (human) (UniProt P00533)
[2] = system: EGFR (human), P00533 [746-750 del]
[3] = system: EGFR (human), P00533 [P753S; 747-752 del]
[4] = system: FLT3 (human), P36888 [K663Q]
[5] = system: KIT (human), P10721 [V559D/T670I]
MET (human) = MET (human) (UniProt P08581)
MYLK3 (human) = MYLK3 (human) (UniProt Q32MK0)
CDKL5 (human) = CDKL5 (human) (UniProt O76039)
EPHB6 (human) = EPHB6 (human) (UniProt O15197)
ERBB3 (human) = ERBB3 (human) (UniProt P21860)
ERN1 (human) = ERN1 (human) (UniProt O75460)
HIPK4 (human) = HIPK4 (human) (UniProt Q8NE63)
HUNK (human) = HUNK (human) (UniProt P57058)
MAK (human) = MAK (human) (UniProt P20794)
MAP3K13 (human) = MAP3K13 (human) (UniProt O43283)
MAP3K15 (human) = MAP3K15 (human) (UniProt Q6ZN16)
MAP3K2 (human) = MAP3K2 (human) (UniProt Q9Y2U5)
PI4KB (human) = PI4KB (human) (UniProt Q9UBF8)
[6] = system: PIK3CA (human), P42336 [E545A]
[7] = system: PIK3CA (human), P42336 [Q546K]
ROCK1 (human) = ROCK1 (human) (UniProt Q13464)
SBK1 (human) = SBK1 (human) (UniProt Q52WX2)
STK39 (human) = STK39 (human) (UniProt Q9UEW8)
YSK4 (human) = YSK4 (human) (UniProt Q56UN5)
CASK (human) = CASK (human) (UniProt O14936)
CDK13 (human) = CDK13 (human) (UniProt Q14004)
CDK4 CCND1 (human) = CDK4 CCND1 (human) (UniProt P11802+P24385)
IRAK4 (human) = IRAK4 (human) (UniProt Q9NWZ3)
NEK11 (human) = NEK11 (human) (UniProt Q8NG66)
NEK4 (human) = NEK4 (human) (UniProt P51957)
PIP4K2C (human) = PIP4K2C (human) (UniProt Q8TBX8)
PIP5K1C (human) = PIP5K1C (human) (UniProt O60331)
SGK3 (human) = SGK3 (human) (UniProt Q96BR1)
STK32A (human) = STK32A (human) (UniProt Q8WU08)
TRPM6 (human) = TRPM6 (human) (UniProt Q9BX84)

Chain of SBK1 (human) (Q52WX2 whole entry, looked up): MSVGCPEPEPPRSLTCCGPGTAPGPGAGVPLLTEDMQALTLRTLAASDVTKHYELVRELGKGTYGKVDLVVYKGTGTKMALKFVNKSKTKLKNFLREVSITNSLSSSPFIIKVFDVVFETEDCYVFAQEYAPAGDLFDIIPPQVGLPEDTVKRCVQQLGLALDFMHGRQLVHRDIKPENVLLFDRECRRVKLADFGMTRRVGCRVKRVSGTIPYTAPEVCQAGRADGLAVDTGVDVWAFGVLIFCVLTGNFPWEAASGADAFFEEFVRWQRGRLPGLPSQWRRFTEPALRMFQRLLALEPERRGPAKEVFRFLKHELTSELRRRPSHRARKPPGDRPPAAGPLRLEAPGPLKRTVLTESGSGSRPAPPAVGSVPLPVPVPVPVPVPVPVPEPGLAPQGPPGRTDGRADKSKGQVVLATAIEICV
Chain of MYLK3 (human) (Q32MK0 whole entry, looked up): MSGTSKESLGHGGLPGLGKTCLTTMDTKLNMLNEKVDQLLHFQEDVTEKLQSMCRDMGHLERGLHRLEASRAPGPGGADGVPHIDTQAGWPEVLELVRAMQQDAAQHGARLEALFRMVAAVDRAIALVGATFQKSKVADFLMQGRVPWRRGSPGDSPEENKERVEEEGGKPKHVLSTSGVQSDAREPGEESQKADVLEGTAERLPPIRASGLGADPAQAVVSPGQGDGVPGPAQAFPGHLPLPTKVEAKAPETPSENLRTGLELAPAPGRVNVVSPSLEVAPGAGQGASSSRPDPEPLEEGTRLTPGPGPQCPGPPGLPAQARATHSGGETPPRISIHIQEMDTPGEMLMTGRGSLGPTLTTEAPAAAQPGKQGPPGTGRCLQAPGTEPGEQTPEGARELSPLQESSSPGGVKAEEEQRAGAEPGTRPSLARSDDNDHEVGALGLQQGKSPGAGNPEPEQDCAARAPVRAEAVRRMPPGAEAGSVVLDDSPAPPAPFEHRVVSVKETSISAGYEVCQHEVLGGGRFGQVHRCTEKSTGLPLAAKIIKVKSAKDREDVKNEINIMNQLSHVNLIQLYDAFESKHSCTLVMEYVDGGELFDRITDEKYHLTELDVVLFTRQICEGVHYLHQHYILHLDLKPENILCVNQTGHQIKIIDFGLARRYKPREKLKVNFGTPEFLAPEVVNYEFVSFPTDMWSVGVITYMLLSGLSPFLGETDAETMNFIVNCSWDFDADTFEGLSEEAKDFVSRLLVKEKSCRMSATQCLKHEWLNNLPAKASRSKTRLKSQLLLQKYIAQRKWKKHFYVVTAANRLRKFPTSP
Chain of KIT (human), P10721 [V559D/T670I] (P10721 whole entry V559D/T670I, looked up): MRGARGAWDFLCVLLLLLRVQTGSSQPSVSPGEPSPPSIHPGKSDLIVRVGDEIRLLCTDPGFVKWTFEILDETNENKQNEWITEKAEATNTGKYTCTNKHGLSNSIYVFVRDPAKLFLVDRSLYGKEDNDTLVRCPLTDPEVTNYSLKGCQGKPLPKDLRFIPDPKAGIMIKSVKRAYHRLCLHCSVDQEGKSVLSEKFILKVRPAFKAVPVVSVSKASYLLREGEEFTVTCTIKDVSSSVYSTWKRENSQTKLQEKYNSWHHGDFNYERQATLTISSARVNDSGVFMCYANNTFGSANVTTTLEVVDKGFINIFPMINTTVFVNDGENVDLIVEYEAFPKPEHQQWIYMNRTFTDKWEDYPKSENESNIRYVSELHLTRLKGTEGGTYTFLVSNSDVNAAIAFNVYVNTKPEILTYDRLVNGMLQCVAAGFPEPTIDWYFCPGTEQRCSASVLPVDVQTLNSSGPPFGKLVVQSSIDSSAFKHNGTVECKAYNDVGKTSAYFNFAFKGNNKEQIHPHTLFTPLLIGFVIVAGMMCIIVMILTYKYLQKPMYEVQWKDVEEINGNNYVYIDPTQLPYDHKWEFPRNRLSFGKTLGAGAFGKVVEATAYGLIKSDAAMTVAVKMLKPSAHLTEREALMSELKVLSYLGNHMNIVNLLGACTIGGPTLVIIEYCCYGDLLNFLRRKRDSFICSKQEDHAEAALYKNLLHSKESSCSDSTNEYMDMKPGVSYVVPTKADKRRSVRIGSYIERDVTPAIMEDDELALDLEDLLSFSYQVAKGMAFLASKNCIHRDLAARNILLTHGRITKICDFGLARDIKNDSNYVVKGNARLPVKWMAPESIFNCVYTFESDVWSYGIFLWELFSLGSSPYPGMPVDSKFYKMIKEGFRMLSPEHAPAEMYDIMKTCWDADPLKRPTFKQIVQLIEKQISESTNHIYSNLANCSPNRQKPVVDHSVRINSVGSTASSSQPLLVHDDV
Chain of CDKL5 (human) (O76039 whole entry, looked up): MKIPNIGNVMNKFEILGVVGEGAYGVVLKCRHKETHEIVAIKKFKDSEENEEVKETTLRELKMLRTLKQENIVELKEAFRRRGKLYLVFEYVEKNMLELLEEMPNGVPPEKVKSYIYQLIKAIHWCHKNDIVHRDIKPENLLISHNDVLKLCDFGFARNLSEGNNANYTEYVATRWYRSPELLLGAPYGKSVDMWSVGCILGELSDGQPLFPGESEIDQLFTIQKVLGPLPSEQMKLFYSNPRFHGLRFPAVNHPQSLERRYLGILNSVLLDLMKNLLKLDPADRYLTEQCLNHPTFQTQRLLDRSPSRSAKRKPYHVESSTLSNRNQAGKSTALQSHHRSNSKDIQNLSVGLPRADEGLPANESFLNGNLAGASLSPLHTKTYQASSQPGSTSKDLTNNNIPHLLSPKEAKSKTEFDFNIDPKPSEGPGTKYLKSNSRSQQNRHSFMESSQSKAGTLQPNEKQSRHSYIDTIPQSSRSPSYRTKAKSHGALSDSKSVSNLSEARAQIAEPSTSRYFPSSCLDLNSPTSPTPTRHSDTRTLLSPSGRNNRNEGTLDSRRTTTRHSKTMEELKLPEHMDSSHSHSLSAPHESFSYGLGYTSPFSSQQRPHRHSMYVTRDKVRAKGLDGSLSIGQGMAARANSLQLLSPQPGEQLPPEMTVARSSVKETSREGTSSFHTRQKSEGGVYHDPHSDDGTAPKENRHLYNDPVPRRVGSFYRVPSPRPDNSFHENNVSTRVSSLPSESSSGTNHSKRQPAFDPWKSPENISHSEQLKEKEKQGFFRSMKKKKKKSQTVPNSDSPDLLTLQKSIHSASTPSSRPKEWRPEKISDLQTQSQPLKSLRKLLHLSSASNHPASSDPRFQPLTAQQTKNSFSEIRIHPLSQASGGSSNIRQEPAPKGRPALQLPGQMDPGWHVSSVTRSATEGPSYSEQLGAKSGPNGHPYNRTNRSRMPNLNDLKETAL
Chain of MET (human) (P08581 whole entry, looked up): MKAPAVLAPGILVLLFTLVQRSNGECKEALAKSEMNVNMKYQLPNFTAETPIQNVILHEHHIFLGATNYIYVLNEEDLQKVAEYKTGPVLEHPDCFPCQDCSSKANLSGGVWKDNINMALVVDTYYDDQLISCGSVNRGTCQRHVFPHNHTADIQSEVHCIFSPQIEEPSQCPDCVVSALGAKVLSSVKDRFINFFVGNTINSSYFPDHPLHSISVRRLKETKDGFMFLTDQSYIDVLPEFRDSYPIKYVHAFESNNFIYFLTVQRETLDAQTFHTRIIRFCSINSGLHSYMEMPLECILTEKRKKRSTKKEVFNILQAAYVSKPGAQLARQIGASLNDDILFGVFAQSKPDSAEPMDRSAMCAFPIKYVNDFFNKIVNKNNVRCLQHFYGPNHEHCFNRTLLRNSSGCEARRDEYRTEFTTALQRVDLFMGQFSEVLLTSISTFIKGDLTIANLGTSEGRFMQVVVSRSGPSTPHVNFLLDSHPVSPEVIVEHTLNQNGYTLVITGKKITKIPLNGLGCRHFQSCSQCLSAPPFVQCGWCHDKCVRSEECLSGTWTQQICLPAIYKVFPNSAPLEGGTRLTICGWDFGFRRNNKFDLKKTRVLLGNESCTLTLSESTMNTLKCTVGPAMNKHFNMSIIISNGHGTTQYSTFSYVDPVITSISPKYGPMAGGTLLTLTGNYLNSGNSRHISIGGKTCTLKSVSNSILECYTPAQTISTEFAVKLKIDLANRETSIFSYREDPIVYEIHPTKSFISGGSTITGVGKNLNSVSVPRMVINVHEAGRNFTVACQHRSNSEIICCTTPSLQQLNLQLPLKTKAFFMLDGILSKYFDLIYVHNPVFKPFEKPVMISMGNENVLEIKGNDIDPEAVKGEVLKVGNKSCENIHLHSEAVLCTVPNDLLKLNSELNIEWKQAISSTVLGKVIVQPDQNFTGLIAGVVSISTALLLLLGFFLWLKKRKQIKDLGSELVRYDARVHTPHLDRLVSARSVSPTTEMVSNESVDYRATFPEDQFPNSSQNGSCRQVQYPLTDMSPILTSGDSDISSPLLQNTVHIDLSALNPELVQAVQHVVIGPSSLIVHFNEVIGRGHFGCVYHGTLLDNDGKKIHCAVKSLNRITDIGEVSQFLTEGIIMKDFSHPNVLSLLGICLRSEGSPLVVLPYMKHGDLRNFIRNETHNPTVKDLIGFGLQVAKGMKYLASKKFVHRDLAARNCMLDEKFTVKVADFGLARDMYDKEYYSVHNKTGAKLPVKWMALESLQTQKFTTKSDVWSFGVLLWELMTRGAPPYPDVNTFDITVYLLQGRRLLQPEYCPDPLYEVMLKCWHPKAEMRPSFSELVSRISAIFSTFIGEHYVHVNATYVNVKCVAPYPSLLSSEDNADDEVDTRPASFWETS
Chain of PIP4K2C (human) (Q8TBX8 whole entry, looked up): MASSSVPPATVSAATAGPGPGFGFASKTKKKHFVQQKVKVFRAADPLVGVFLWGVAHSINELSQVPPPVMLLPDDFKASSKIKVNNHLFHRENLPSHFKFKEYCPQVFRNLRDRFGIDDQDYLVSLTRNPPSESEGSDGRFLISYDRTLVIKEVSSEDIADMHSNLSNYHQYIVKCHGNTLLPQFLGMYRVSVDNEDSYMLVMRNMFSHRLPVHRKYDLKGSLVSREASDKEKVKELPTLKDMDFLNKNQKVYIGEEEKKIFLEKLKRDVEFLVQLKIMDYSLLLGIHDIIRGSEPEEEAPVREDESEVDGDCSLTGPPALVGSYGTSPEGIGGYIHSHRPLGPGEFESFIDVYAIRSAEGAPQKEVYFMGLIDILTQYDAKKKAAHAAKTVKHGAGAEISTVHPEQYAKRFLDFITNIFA

Compound	kinase still bound, per cent of control [1] [%]	kinase still bound, per cent of control (CDK2 (human)) [%]	kinase still bound, per cent of control (EGFR (human)) [%]	kinase still bound, per cent of control [2] [%]	kinase still bound, per cent of control [3] [%]	kinase still bound, per cent of control [4] [%]	kinase still bound, per cent of control [5] [%]	kinase still bound, per cent of control (MET (human)) [%]	kinase still bound, per cent of control (MYLK3 (human)) [%]	kinase still bound, per cent of control (CDKL5 (human)) [%]	kinase still bound, per cent of control (EPHB6 (human)) [%]	kinase still bound, per cent of control (ERBB3 (human)) [%]	kinase still bound, per cent of control (ERN1 (human)) [%]	kinase still bound, per cent of control (HIPK4 (human)) [%]	kinase still bound, per cent of control (HUNK (human)) [%]	kinase still bound, per cent of control (MAK (human)) [%]	kinase still bound, per cent of control (MAP3K13 (human)) [%]	kinase still bound, per cent of control (MAP3K15 (human)) [%]	kinase still bound, per cent of control (MAP3K2 (human)) [%]	kinase still bound, per cent of control (PI4KB (human)) [%]	other results
Cc1ccc(C(=O)Nc2cccc(C(F)(F)F)c2)cc1Nc1cncc(C(N)=O)c1	100	100	100	100	100	100	100	100	100	–	–	–	–	–	–	–	–	–	–	–	–
COc1cc(C(=O)NC2CCN(C)CC2)ccc1Nc1ncc2c(n1)N(C1CCCC1)CCC(=O)N2C(C)C	100	100	100	100	100	100	100	100	100	100	100	100	100	100	100	100	100	100	100	100	kinase still bound, per cent of control [6]: 100%; kinase still bound, per cent of control [7]: 100%; kinase still bound, per cent of control (ROCK1 (human)): 100%; kinase still bound, per cent of control (SBK1 (human)): 100%; kinase still bound, per cent of control (STK39 (human)): 100%; kinase still bound, per cent of control (YSK4 (human)): 100%
CC[C@@H]1C(=O)N(C)c2cnc(Nc3ccc(C(=O)NC4CCN(C)CC4)cc3OC)nc2N1C1CCCC1	100	100	–	–	–	100	100	–	–	–	–	–	–	–	–	–	–	–	–	–	–
COc1cc(C(=O)NC2CCN(C)CC2)ccc1Nc1ncc2c(n1)N(C1CCCC1)C(C)CC(=O)N2C (stereo not given)	100	100	100	100	100	100	100	100	100	–	–	–	–	–	–	–	–	–	–	–	–
CCC(=O)N1CCN(c2ccc(-n3c(=O)ccc4cnc5ccc(-c6cnc7ccccc7c6)cc5c43)cc2C(F)(F)F)CC1	–	6.2	85	–	–	23	–	84	94	100	80	44	100	4.6	91	68	100	100	62	96	kinase still bound, per cent of control (CASK (human)): 100%; kinase still bound, per cent of control (CDK13 (human)): 80%; kinase still bound, per cent of control (CDK4 CCND1 (human)): 100%; kinase still bound, per cent of control (IRAK4 (human)): 90%; kinase still bound, per cent of control (NEK11 (human)): 65%; kinase still bound, per cent of control (NEK4 (human)): 86%; kinase still bound, per cent of control [6]: 1%; kinase still bound, per cent of control [7]: 6.8%; kinase still bound, per cent of control (PIP4K2C (human)): 58%; kinase still bound, per cent of control (PIP5K1C (human)): 80%; kinase still bound, per cent of control (ROCK1 (human)): 53%; kinase still bound, per cent of control (SBK1 (human)): 88%; kinase still bound, per cent of control (SGK3 (human)): 100%; kinase still bound, per cent of control (STK32A (human)): 100%; kinase still bound, per cent of control (STK39 (human)): 100%; kinase still bound, per cent of control (TRPM6 (human)): 100%; kinase still bound, per cent of control (YSK4 (human)): 38%

The next lines start with results.

kinase still bound, per cent of control [1] [%]	kinase still bound, per cent of control (CDK2 (human)) [%]	kinase still bound, per cent of control (EGFR (human)) [%]	kinase still bound, per cent of control [2] [%]	kinase still bound, per cent of control [3] [%]	kinase still bound, per cent of control [4] [%]	kinase still bound, per cent of control [5] [%]	kinase still bound, per cent of control (MET (human)) [%]	kinase still bound, per cent of control (MYLK3 (human)) [%]	kinase still bound, per cent of control (CDKL5 (human)) [%]	kinase still bound, per cent of control (EPHB6 (human)) [%]	kinase still bound, per cent of control (ERBB3 (human)) [%]	kinase still bound, per cent of control (ERN1 (human)) [%]	kinase still bound, per cent of control (HIPK4 (human)) [%]	kinase still bound, per cent of control (HUNK (human)) [%]	kinase still bound, per cent of control (MAK (human)) [%]	kinase still bound, per cent of control (MAP3K13 (human)) [%]	kinase still bound, per cent of control (MAP3K15 (human)) [%]	kinase still bound, per cent of control (MAP3K2 (human)) [%]	kinase still bound, per cent of control (PI4KB (human)) [%]	Compound	other results
100	100	100	100	100	100	100	100	100	9.4	100	100	100	14	100	4.6	100	100	100	100	OCCCNc1cc(-c2ccnc(Nc3cccc(Cl)c3)n2)ccn1	kinase still bound, per cent of control [6]: 100%; kinase still bound, per cent of control [7]: 100%; kinase still bound, per cent of control (ROCK1 (human)): 100%; kinase still bound, per cent of control (SBK1 (human)): 100%; kinase still bound, per cent of control (STK39 (human)): 100%; kinase still bound, per cent of control (YSK4 (human)): 100%
100	100	0.1	0.2	0.4	1.1	100	20	100	–	–	–	–	–	–	–	–	–	–	–	C=CC(=O)Nc1cccc(Oc2nc(Nc3ccc(N4CCN(C)CC4)cc3OC)ncc2Cl)c1	–
100	100	100	100	100	100	100	–	100	100	100	100	100	100	100	100	100	100	100	100	Cn1c(=O)n(-c2ccc(C(C)(C)C#N)cc2)c2c3cc(-c4cnc5ccccc5c4)ccc3ncc21	kinase still bound, per cent of control [7]: 3.8%; kinase still bound, per cent of control (ROCK1 (human)): 100%; kinase still bound, per cent of control (SBK1 (human)): 100%; kinase still bound, per cent of control (STK39 (human)): 100%; kinase still bound, per cent of control (YSK4 (human)): 29%

Source: the kinase profiling compilation of Christmann-Franck et al. (2016)
